Measured values as given in US20030130225A1, “Novel methods of treating local fungal and bacterial infections” (priority 2001, published 2003).
Like-named read-outs stand apart in the source and are kept apart here.

Tests used:
[1] = tested on: Candida vaginitis; conditions: single dose oral; cited from earlier work
[2] = human, in vivo, po; cited from earlier work
[3] = tested on: Candida albicans; conditions: for rabbits with no Candida albicans in culture of the vaginal mucosa: 72 hours post dosage
Excerpt: Thirty-five female albino rabbits vaginally infected with Candida albicans were randomly assigned to seven dosage groups, 5 rabbits per group.

## OC(Cn1cncn1)(Cn1cncn1)c1ccc(F)cc1F [Fluconazole, fluconazole]
[1]
  average time for the onset of symptom relief: about 2.4 days
[2]
  time to reach peak plasma concentration: about 3 hours
  time to reach vaginal tissue and vaginal fluid: 2 to 3 days
[3]; 0.5 mg/kg oral fluconazole once
  rabbits with no Candida albicans in culture of the vaginal mucosa: 40%
[3]; 1.0 mg/kg oral fluconazole once
  rabbits with no Candida albicans in culture of the vaginal mucosa: 100%
[3]; 2.0 mg/kg oral fluconazole once
  rabbits with no Candida albicans in culture of the vaginal mucosa: 60%
[3]; rabbit, in vivo
  irritation to the vaginal epithelium: mild irritation
